Results published in patent publication US6603046B1, “Bis-aromatic a,β-unsaturated ketones” (Lica Pharmaceuticals A/S, priority 1992, dated 2003).
In brackets after ≈: the same amount, converted by molar mass. Where two headings read alike, the source gives them in different places.

Tests used:
[1] = test system: chloroquine resistant P. falciparum DD2 strain; assay: In vitro growth of P. falciparum DD2, 3H-hypoxanthine uptake (Example 15); type: cell-based, Plasmodium falciparum; conditions: title: percentage inhibition of 3H-hypoxanthine uptake
[2] = test system: Strain = H37RV; conditions: cited from earlier work
[3] = test system: Strain = H37RV; assay: MIC with and without 10% human serum; type: cell-based; conditions: Mycobacterium tuberculosis, H37RV
[4] = with 10% Human Serum, read-out: MIC+serum
[5] = without 10% Human Serum, read-out: MIC−serum

COc1ccc(/C=C/C(=O)c2ccc(O)cc2)cc1OC [3,4-Dimethoxy-4′-hydroxychalcone, 3,4-dimethoxy-4′-hydroxychalcone]
melting point: 193 to 198 °C | Growth in % of control (mean ± SEM) ([1]; 0.5 μg/ml): 9.3 ± 9.2% | Growth in % of control (mean ± SEM) ([1]; 1 μg/ml): 7.1 ± 8.1% | Growth in % of control (mean ± SEM) ([1]; 5 μg/ml): 48.5 ± 8.4% | Growth in % of control (mean ± SEM) ([1]; 10 μg/ml): 82.6 ± 4.7%

CC[C@@H](CO)NCCN[C@@H](CC)CO [Ethambutol]
protein binding [2]: (40% protein | MIC [3, 4]: 2 µg/mL (≈ 9.79 µM) | MIC [3, 5]: 1 µg/mL (≈ 4.89 µM)

CC(=O)O[C@H]1C[C@@]2(C)[C@@H](C[C@@H](O)[C@H]3[C@@]4(C)CC[C@@H](O)[C@@H](C)[C@@H]4CC[C@@]32C)/C1=C(\CCC=C(C)C)C(=O)O [Fusidic acid]
protein binding [2]: (90% protein | MIC [3, 4]: 32 µg/mL (≈ 61.9 µM) | MIC [3, 5]: 8 µg/mL (≈ 15.5 µM)

CC1COc2c(N3CCN(C)CC3)c(F)cc3c(=O)c(C(=O)O)cn1c23 (centres unmarked) [Ofloxacin]
protein binding [2]: (5% protein | MIC [3, 4]: 0.5 µg/mL (≈ 1.38 µM) | MIC [3, 5]: 0.5 µg/mL (≈ 1.38 µM)
